Measured values: BindingDB's records for doi:10.1021/jm0311442 (University of Newcastle, 2004)
pIC50: −log10 of the molar value.

Molecular target: Cyclin-dependent kinase 1/G2/mitotic-specific cyclin-B (Marthasterias glacialis, UniProt P15206+Q9DGD3)
Experiment: Kinase Inhibition Assay

Sequence of Cyclin-dependent kinase 1/G2/mitotic-specific cyclin-B (Q9DGD3 whole entry): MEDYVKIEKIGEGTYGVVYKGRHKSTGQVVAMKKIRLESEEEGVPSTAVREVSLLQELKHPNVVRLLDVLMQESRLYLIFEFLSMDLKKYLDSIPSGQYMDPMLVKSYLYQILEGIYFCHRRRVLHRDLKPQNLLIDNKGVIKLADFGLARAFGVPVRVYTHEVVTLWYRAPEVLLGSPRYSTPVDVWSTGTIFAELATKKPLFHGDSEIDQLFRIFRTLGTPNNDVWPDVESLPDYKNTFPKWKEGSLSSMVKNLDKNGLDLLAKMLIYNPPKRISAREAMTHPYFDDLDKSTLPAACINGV
Sequence of Cyclin-dependent kinase 1/G2/mitotic-specific cyclin-B (P15206 whole entry): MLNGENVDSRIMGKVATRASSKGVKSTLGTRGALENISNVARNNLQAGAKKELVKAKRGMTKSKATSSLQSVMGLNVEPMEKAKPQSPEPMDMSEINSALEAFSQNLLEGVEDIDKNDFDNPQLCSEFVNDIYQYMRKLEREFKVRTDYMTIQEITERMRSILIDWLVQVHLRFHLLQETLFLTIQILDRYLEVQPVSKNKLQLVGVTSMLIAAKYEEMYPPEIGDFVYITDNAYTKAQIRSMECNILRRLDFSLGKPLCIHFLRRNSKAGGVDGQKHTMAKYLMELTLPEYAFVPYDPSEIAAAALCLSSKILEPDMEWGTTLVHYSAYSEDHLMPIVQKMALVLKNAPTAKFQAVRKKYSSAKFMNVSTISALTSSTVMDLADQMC

Compound: CS(=O)(=O)c1ccc(Nc2nc(OCC3CCCCC3)c3[nH]cnc3n2)cc1 [6-(cyclohexylmethoxy)-N-(4-methanesulfonylphenyl)-9H-purin-2-amine]
- pIC50: 7.10
